Key:
Format in all cases: in vivo, C57BL/6 (B6) mice
[1] = system: VCAM-1; experiment: Aortic vascular inflammation gene expression by qPCR (VCAM-1); conditions: female B6 mice, 1.3% carnitine water, 6 weeks; mRNA normalized to GAPDH
Method: (§1) Six-week-old female C57BL/6 (B6) mice were purchased from BioLASCO (Taipei, Taiwan) and were acclimatized for 1 week. Mice were fed ad libitum with experimental diets, LabDiet Rodent 5001. The animal use protocol listed below has been reviewed and approved by the Institutional Animal Care and Use Committee (NTU105-EL-00115). In the experiment, mice were randomly divided into four groups: normal diet, 1.3% carnitine water, 1.3% carnitine water with 0.05% pterostilbene diet (around 250 mg/kg/day), and 1.3% carnitine water with antibiotic cocktail for 6 weeks. Mice received a cocktail of oral antibiotics (vancomycin 500 mg/L, metronidazole 1 g/L, neomycin 1 g/L, and ampicillin 1 g/L in drinking water) for 6 weeks. […] At the end of the six-week study, mice were euthanized by CO2 asphyxiation.
(§2) Hepatic and aortic RNA was extracted using TRIzol reagent. Phase separation was performed by adding 200 μl chloroform/1 mlTRIzol. […]
(§3) Quality of RNA and RNA concentrations were then quantified using NanoDrop 1000 spectrophotometer. […]
(§4) mRNA levels were determined by quantitative real-time PCR usingStepOnePlus Real-Time PCR system and SYBR Green master mix as compared to constitutively expressed gene (GAPDH) using the relative quantification method (ΔΔCt), Primer sequences for SYBR Green reactions were designed and synthesized by Mission Biotech.

[2] = system: E-selectin; experiment: Aortic vascular inflammation gene expression by qPCR (E-selectin); conditions: female B6 mice, 1.3% carnitine water, 6 weeks; mRNA normalized to GAPDH
Method: as §1, §2, §3, §4

[3] = system: TNF-α; experiment: Aortic vascular inflammation gene expression by qPCR (TNF-α); conditions: female B6 mice, 1.3% carnitine water, 6 weeks; mRNA normalized to GAPDH
Method: as §1, §2, §3, §4

[4] = system: FMO3; experiment: Hepatic FMO3 mRNA expression by RT-qPCR; conditions: female B6 mice, 6 weeks; normalized to GAPDH
Method: as §1, §2, §3, §4

[5] = system: cecal microbiota; experiment: Cecal microbiota composition by 16S rRNA gene sequencing; conditions: mouse cecum, 6 weeks
Method: as §1
Microbial community composition was assessed by pyrosequencing 16S rRNA genes derived from mouse cecum (n=3 for each group). Total DNA was isolated and purified using InnuSPEED Stool DNA kit according to the manufacturer's instructions. The quality of DNA samples was assessed by NanoDrop 1000 spectrophotometer. DNA samples were sent to Biotools Co., Ltd.for 16S rRNA gene amplification, sequence library construction and sequencing. […] The library DNA was sequenced by IlluminaHiSeq2500 platform, and paired-end reads (250 bp) were generated.

[6] = Plasma TMAO level by LC-MS/MS; conditions: female B6 mice, 1.3% carnitine water, 6 weeks
Method: as §1
LC-MS/MS was used to quantify plasma L-carnitine and TMAO in positive MRM mode, with the instrument water UPLC system (Acquity, Waters, Mildford, Mass., USA) and triple quadrupole mass spectrometer (TQS, Waters Micromass, Manchester, UK). […]
The MS parameters were set as follow: 100° C. for the source temperature, 650° C. for the desolvation temperature, 2 L/h for the cone gas flow, 600 L/h for the desolvation gas flow and 1500 V for the capillary voltage. Cone voltage was set a 10 V. Concentrations of each analyte in samples were determined by calibration curves.

C[N+](C)(C)C[C@H](O)CC(=O)[O-] [Carnitine, L-carnitine]
expression of VCAM-1 in aortas [1]: significantly enhanced | expression of E-selectin in aortas [2]: significantly enhanced | expression of TNF-α in aortas [3]: significantly enhanced | hepatic FMO3 mRNA expression level [4]: approximately three-fold increase | Erysipelotrichia (Turibacter) proportion / relative abundance [5]: increase | increase in circulating TMAO level compared to ND group [6]: up to 8 folds

Reference: US20210093582A1, “COMPOSITIONS FOR REDUCING TRIMETHYLAMINE-N-OXIDE AND RELATED THERAPEUTIC APPLICATIONS” (priority 2019, published 2021)
